# Measurements as given in patent US9278914B2, “SARMs and method of use thereof” (UNIVERSITY OF TENNESSEE RESEARCH FOUNDATION, priority 2004, dated 2016).
# Experiments:
# Format in all cases: in vivo, rat
# [1] = test system: castrated male Sprague-Dawley rats; experiment: Anabolic and androgenic activity of SARM panel in castrated male rats, sc 1 mg/d for 14 d; conditions: 1 mg/d sc 14 d
# Experimental: The in vivo pharmacological activity of each synthetic AR ligand (listed in Table 4, below) was examined in five male Sprague-Dawley rats weighing approximately 200 g. Animals were castrated via a scrotal incision under anesthesia 24 h before drug treatments and received daily sc injections of the compound of interest at a dose rate of 1 mg/d for 14 d. All compounds of interest were freshly dissolved in vehicle containing dimethylsulfoxide (5%, vol/vol) in polyethylene glycol 300 before dose administration. An additional two groups of animals with or without castration received vehicle only and served as castrated or intact control groups, respectively. Animals were killed at the end of the treatment. Plasma samples were collected and stored at −80° C. for future use. The ventral prostate, seminal vesicles, and levator ani muscle were removed, cleared of extraneous tissue, and weighed. All organ weights were normalized to body weight and compared. The weights of prostate and seminal vesicles were used to evaluate androgenic activity, whereas the levator ani muscle weight was used as a measure of anabolic activity. […] The results are graphically depicted in FIGS. 3 and 4.
# [2] = test system: intact male Sprague-Dawley rats; experiment: Anabolic and androgenic activity in intact male rats, daily oral gavage
# Experimental: (§1) The test article for this study was weighed and dissolved in 10% DMSO (Fisher) diluted with PEG 300 (Acros Organics, N.J.) for preparation of the appropriate dosage concentrations. The animals were housed in groups of 2 to 3 animals per cage. Animals were randomly assigned to one of seven groups consisting of 4 to 5 animals per group. Control groups (intact and ORX) were administered vehicle daily. […] Where appropriate, animals were castrated on day one of the study. Treatment with compound of formula S-II began nine days post ORX and was administered daily via oral gavage for fourteen days.
# (§2) The animals were sacrificed under anesthesia (ketamine/xyalzine, 87:13 mg/kg) and body weights were recorded. In addition, ventral prostate, seminal vesicles, and levator ani muscle were removed, individually weighed, normalized to body weight, and expressed as a percentage of intact control. Student's T-test was used to compare individual dose groups to the intact control group. Significance was defined a priori as a P-value<0.05. Ventral prostate and seminal vesicle weights were evaluated as a measure of androgenic activity, whereas levator ani muscle weight was evaluated as a measure of anabolic activity. Blood was collected from the abdominal aorta, centrifuged, and sera were frozen at −80° C. prior to determination of serum hormone levels. Serum luteinizing hormone (LH) and follicle stimulating hormone (FSH) concentrations were determined.
# (§3) The test article for this study was weighed and dissolved in 10% DMSO (Fisher) diluted with PEG 300 (Acros Organics, N.J.) for preparation of the appropriate dosage concentrations. The animals were housed in groups of 2 to 3 animals per cage. Animals were randomly assigned to one of seven groups consisting of 4 to 5 animals per group. Control groups (intact and ORX) were administered vehicle daily. Compound of formula S-XXIII was administered via oral gavage at doses of 0.01, 0.03, 0.1, 0.3, 0.75, and 1 mg/day to both intact and ORX groups. Where appropriate, animals were castrated on day one of the study. Treatment with compound of formula S-XXIII began nine days post ORX and was administered daily via oral gavage for fourteen days.
# as §3, with “S-XXIV” for “S-XXIII”, “study.” for “study. Treatment with compound of formula S-XXIII began nine days post ORX and was administered daily via oral gavage for fourteen days.”
# [3] = test system: castrated (ORX) male Sprague-Dawley rats; experiment: Anabolic and androgenic activity in castrated (ORX) male rats, daily oral gavage for fourteen days; conditions: for Emax levator ani / Emax prostate / Emax seminal vesicles: nonlinear regression, sigmoid Emax model; for Anabolic muscle/prostate ratio: castrated rats
# Experimental: Male Sprague-Dawley rats weighing approximately 200 g were purchased from Harlan Bioproducts for Science (Indianapolis, Ind.).
# as §1, with “The animals were housed in groups of 2 to 3 animals per cage.” left out, “study.” for “study. Treatment with compound of formula S-II began nine days post ORX and was administered daily via oral gavage for fourteen days.”
# as §2, with “In” for “The animals were sacrificed under anesthesia (ketamine/xyalzine, 87:13 mg/kg) and body weights were recorded. In”
# as §3, with “The animals were housed in groups of 2 to 3 animals per cage.” left out
# Male Sprague-Dawley rats weighing approximately 200 g were purchased from Harlan Bioproducts for Science (Indianapolis, Ind.). […] Regenerative effects of the compound of formula S-XXIV in chronically (9 days) ORX rats was similarly evaluated.
# as §3, with “The animals were housed in groups of 2 to 3 animals per cage.” left out, “S-XXIV” for “S-XXIII”
# Male Sprague-Dawley rats weighing approximately 200 g were purchased from Harlan Bioproducts for Science (Indianapolis, Ind.). […] Anabolic and androgenic activity of compound of formula S-XXV in intact animals was evaluated, and the dose response in acutely orchidectomized (ORX) animals was evaluated as well.
# The compound was weighed and dissolved in 10% DMSO (Fisher) diluted with PEG 300 (Acros Organics, N.J.) for preparation of the appropriate dosage concentrations.
structure (smiles),measurement,setting,value
C[C@](O)(COc1ccc(F)cc1F)C(=O)Nc1ccc([N+](=O)[O-])c(C(F)(F)F)c1 [C-1],Levator ani agonism,[1],> 75 % of intact control
same,Ventral prostate weight,[1],< 25 % of intact control
C[C@](O)(COc1ccc(C#N)c(F)c1)C(=O)Nc1ccc(C#N)c(C(F)(F)F)c1 [S-XXIII],Levator ani muscle weight,[2]; 0.01 mg/day oral,116%±7%
same,Prostate weight,[2]; 0.01 mg/day oral,98%±21%
same,Seminal vesicle weight,[2]; 0.01 mg/day oral,115%±12%
same,Levator ani muscle weight,[2]; 0.03 mg/day oral,134%±8%
same,Prostate weight,[2]; 0.03 mg/day oral,99%±8%
same,Seminal vesicle weight,[2]; 0.03 mg/day oral,109%±17%
same,Levator ani muscle weight,[2]; 0.1 mg/day oral,134%±21%
same,Prostate weight,[2]; 0.1 mg/day oral,85%±18%
same,Seminal vesicle weight,[2]; 0.1 mg/day oral,106%±13%
same,Levator ani muscle weight,[2]; 0.3 mg/day oral,134%±11%
same,Prostate weight,[2]; 0.3 mg/day oral,98%±22%
same,Seminal vesicle weight,[2]; 0.3 mg/day oral,121%±11%
same,Levator ani muscle weight,[2]; 0.75 mg/day oral,142%±10%
same,Prostate weight,[2]; 0.75 mg/day oral,126%±17%
same,Seminal vesicle weight,[2]; 0.75 mg/day oral,157%±5%
same,Levator ani muscle weight,[2]; 1 mg/day oral,147%±10%
same,Prostate weight,[2]; 1 mg/day oral,126%±17%
same,Seminal vesicle weight,[2]; 1 mg/day oral,136%±3%
same,Dose able to fully restore/maintain levator ani muscle weight,[3]; ORX rats,0.03 mg/day
same,ED50 levator ani,[3]; ORX rats,0.03 ± 0.01 mg/day
same,ED50 prostate,[3]; ORX rats,0.21 ± 0.04 mg/day
same,ED50 seminal vesicles,[3]; ORX rats,0.2 ± 0.04 mg/day
same,Levator ani muscle weight,"[3]; ORX rats, 0.01 mg/day oral",71%±4%
same,Prostate weight,"[3]; ORX rats, 0.01 mg/day oral",24%±4%
same,Seminal vesicle weight,"[3]; ORX rats, 0.01 mg/day oral",15%±2%
same,Levator ani muscle weight,"[3]; ORX rats, 0.03 mg/day oral",101%±15%
same,Prostate weight,"[3]; ORX rats, 0.03 mg/day oral",37%±9%
same,Seminal vesicle weight,"[3]; ORX rats, 0.03 mg/day oral",25%±9%
same,Levator ani muscle weight,"[3]; ORX rats, 0.1 mg/day oral",125%±20%
same,Prostate weight,"[3]; ORX rats, 0.1 mg/day oral",50%±11%
same,Seminal vesicle weight,"[3]; ORX rats, 0.1 mg/day oral",67%±20%
same,Levator ani muscle weight,"[3]; ORX rats, 0.3 mg/day oral",126%±14%
same,Prostate weight,"[3]; ORX rats, 0.3 mg/day oral",88%±16%
same,Seminal vesicle weight,"[3]; ORX rats, 0.3 mg/day oral",113%±6%
same,Levator ani muscle weight,"[3]; ORX rats, 0.75 mg/day oral",151±9 % of intact controls
same,Prostate weight,"[3]; ORX rats, 0.75 mg/day oral",132%±16%
same,Seminal vesicle weight,"[3]; ORX rats, 0.75 mg/day oral",155%±16%
same,Levator ani muscle weight,"[3]; ORX rats, 1 mg/day oral",143±17 % of intact controls
same,Prostate weight,"[3]; ORX rats, 1 mg/day oral",118±12 % of intact controls
same,Seminal vesicle weight,"[3]; ORX rats, 1 mg/day oral",160%±7%
same,Emax levator ani,[3]; ORX rats,147%±10%
same,Emax prostate,[3]; ORX rats,147%±10%
same,Emax seminal vesicles,[3]; ORX rats,188%±135%
"C[C@](O)(COc1ccc(C#N)cc1)C(=O)Nc1ccc(C#N)c(Cl)c1 [S-XXIV, (S)—N-(3-chloro-4-cyanophenyl)-3-(4-cyanophenoxy)-2-hydroxy-2-methylpropanamide]",Levator ani muscle weight,[2]; 0.01 mg/day oral,107%±5%
same,Prostate weight,[2]; 0.01 mg/day oral,103%±10%
same,Levator ani muscle weight,[2]; 0.03 mg/day oral,103%±7%
same,Prostate weight,[2]; 0.03 mg/day oral,99%±10%
same,Levator ani muscle weight,[2]; 0.1 mg/day oral,97%±7%
same,Prostate weight,[2]; 0.1 mg/day oral,58%±10%
same,Levator ani muscle weight,[2]; 0.3 mg/day oral,103%±5%
same,Prostate weight,[2]; 0.3 mg/day oral,58%±15%
same,Levator ani muscle weight,[2]; 0.75 mg/day oral,118%±7%
same,Prostate weight,[2]; 0.75 mg/day oral,65%±20%
same,Levator ani muscle weight,[2]; 1 mg/day oral,118%±7%
same,Prostate weight,[2]; 1 mg/day oral,77%±23%
same,Dose restoring 100% of levator ani muscle weight,[3]; ORX rats,0.1 mg/day
same,Prostate weight restored at the dose restoring 100% levator ani,[3]; ORX rats,43±15%
same,Levator ani muscle weight,"[3]; ORX rats, 0.01 mg/day oral",52%±8%
same,Prostate weight,"[3]; ORX rats, 0.01 mg/day oral",17%±6%
same,Seminal vesicle weight,"[3]; ORX rats, 0.01 mg/day oral",10%±3%
same,Levator ani muscle weight,"[3]; ORX rats, 0.03 mg/day oral",67%±9%
same,Prostate weight,"[3]; ORX rats, 0.03 mg/day oral",31%±3%
same,Seminal vesicle weight,"[3]; ORX rats, 0.03 mg/day oral",13%±4%
same,Levator ani muscle weight,"[3]; ORX rats, 0.1 mg/day oral",98%±10%
same,Prostate weight,"[3]; ORX rats, 0.1 mg/day oral",43%±15%
same,Seminal vesicle weight,"[3]; ORX rats, 0.1 mg/day oral",21%±6%
same,Levator ani muscle weight,"[3]; ORX rats, 0.3 mg/day oral",103%±12%
same,Prostate weight,"[3]; ORX rats, 0.3 mg/day oral",54%±17%
same,Seminal vesicle weight,"[3]; ORX rats, 0.3 mg/day oral",43%±8%
same,Levator ani muscle weight,"[3]; ORX rats, 0.75 mg/day oral",105%±12%
same,Prostate weight,"[3]; ORX rats, 0.75 mg/day oral",58%±10%
same,Seminal vesicle weight,"[3]; ORX rats, 0.75 mg/day oral",51%±9%
same,Seminal vesicle weight,"[3]; ORX rats, 1 mg/day oral",69%±14%
same,Anabolic muscle/prostate ratio,[3]; 0.01 mg/day,3.02
same,Anabolic muscle/prostate ratio,[3]; 0.03 mg/day,2.13
same,Anabolic muscle/prostate ratio,[3]; 0.1 mg/day,2.27
same,Anabolic muscle/prostate ratio,[3]; 0.3 mg/day,1.90
same,Anabolic muscle/prostate ratio,[3]; 0.75 mg/day,1.83
same,Anabolic muscle/prostate ratio,[3]; 1 mg/day,1.51
C[C@](O)(COc1ccc(C#N)cc1)C(=O)Nc1ccc(C#N)c(C(F)(F)F)c1 [S-XXV],Levator ani muscle weight,[2]; 0.01 mg/day oral,120%±12%
same,Prostate weight,[2]; 0.01 mg/day oral,111%±21%
same,Seminal vesicle weight,[2]; 0.01 mg/day oral,94%±9%
same,Levator ani muscle weight,[2]; 0.03 mg/day oral,116%±7%
same,Prostate weight,[2]; 0.03 mg/day oral,88%±15%
same,Seminal vesicle weight,[2]; 0.03 mg/day oral,77%±11%
same,Levator ani muscle weight,[2]; 0.1 mg/day oral,128%±7%
same,Prostate weight,[2]; 0.1 mg/day oral,77%±17%
same,Seminal vesicle weight,[2]; 0.1 mg/day oral,80%±9%
same,Levator ani muscle weight,[2]; 0.3 mg/day oral,134%±7%
same,Prostate weight,[2]; 0.3 mg/day oral,71%±16%
same,Seminal vesicle weight,[2]; 0.3 mg/day oral,73%±12%
same,Levator ani muscle weight,[2]; 0.75 mg/day oral,125%±9%
same,Prostate weight,[2]; 0.75 mg/day oral,71%±10%
same,Seminal vesicle weight,[2]; 0.75 mg/day oral,77%±10%
same,Levator ani muscle weight,[2]; 1 mg/day oral,146%±17%
same,Prostate weight,[2]; 1 mg/day oral,87%±13%
same,Seminal vesicle weight,[2]; 1 mg/day oral,88%±14%
same,Dose able to fully restore/maintain levator ani muscle weight,[3]; ORX rats,> 0.1 mg/day
same,ED50 levator ani,[3]; ORX rats,0.02 ± 0.01 mg/day
same,ED50 prostate,[3]; ORX rats,0.09 ± 0.07 mg/day
same,ED50 seminal vesicles,[3]; ORX rats,0.17 ± 0.05 mg/day
same,Levator ani muscle weight,"[3]; ORX rats, 0.01 mg/day oral",59%±6%
same,Prostate weight,"[3]; ORX rats, 0.01 mg/day oral",8%±2%
same,Seminal vesicle weight,"[3]; ORX rats, 0.01 mg/day oral",12%±4%
same,Levator ani muscle weight,"[3]; ORX rats, 0.03 mg/day oral",85%±9%
same,Prostate weight,"[3]; ORX rats, 0.03 mg/day oral",20%±5%
same,Seminal vesicle weight,"[3]; ORX rats, 0.03 mg/day oral",17%±5%
same,Levator ani muscle weight,"[3]; ORX rats, 0.1 mg/day oral",112%±10%
same,Prostate weight,"[3]; ORX rats, 0.1 mg/day oral",51%±19%
same,Seminal vesicle weight,"[3]; ORX rats, 0.1 mg/day oral",35%±10%
same,Levator ani muscle weight,"[3]; ORX rats, 0.3 mg/day oral",122%±16%
same,Prostate weight,"[3]; ORX rats, 0.3 mg/day oral",56%±9%
same,Seminal vesicle weight,"[3]; ORX rats, 0.3 mg/day oral",61%±15%
same,Levator ani muscle weight,"[3]; ORX rats, 0.75 mg/day oral",127±12 % of intact controls
same,Prostate weight,"[3]; ORX rats, 0.75 mg/day oral",80%±28%
same,Seminal vesicle weight,"[3]; ORX rats, 0.75 mg/day oral",70%±14%
same,Levator ani muscle weight,"[3]; ORX rats, 1 mg/day oral",129.66±2 % of intact controls
same,Prostate weight,"[3]; ORX rats, 1 mg/day oral",74±12.5 % of intact controls
same,Seminal vesicle weight,"[3]; ORX rats, 1 mg/day oral",80%±6%
same,Emax levator ani,[3]; ORX rats,131%±2%
same,Emax prostate,[3]; ORX rats,83%±25%
same,Emax seminal vesicles,[3]; ORX rats,85%±11%
